Columns and labels:
EGFR (L858R/T790M/C797S) = EGFR (L858R/T790M/C797S) (Homo sapiens, UniProt P00533, C797S/L858R/T790M); test: HTRF inhibitory activity assay against EGFR (L858R/T790M/C797S) enzyme; assay type: biochemical; conditions: read-out: EGFR (L858R/T790M/C797S) inhibition (%) (0.3 nM compound)
Description: (§1) Inhibitory Activity Assay of the Compounds Disclosed Herein Against EGFR (del19/T790M/C797S), EGFR (L858R/T790M/C797S) or EGFR (WT) Enzymes
(§2) The inhibitory effects of the compounds against EGFR (del19/T790M/C797S), EGFR (L858R/T790M/C797S) or EGFR (WT) enzyme activity was determined by using HTRF. The procedures are as follows:
(§3) The WT or mutant EGFR proteins were incubated with a serially diluted compounds at 28° C. for 10 min followed by addition of biotin-labeled general tyrosine kinase (TK) substrate and ATP. The mixture was incubated at room temperature for 40 min for reaction. After the termination of the reaction, an Eu3+-Cryptate-labeled antibody against TK and streptavidin-XL665 were added and the mixture was incubated at room temperature for 60 min. The luminescences at 615 nm and 665 nm were detected and the ratio of 665/615 was calculated to quantify the level of TK substrate phosphorylation. Inhibition % and IC50 of the compounds were calculated relative to the control group.

A431 (EGFR WT) cells = test: Antiproliferative activity against A431 (EGFR WT) cells, Cell Titer Glow; assay type: cell-based; conditions: Homo sapiens, A-431, 72 h; three days after addition of compounds; read-out: Antiproliferative activity A431 wild-type (WT) IC50
Description: (§4) Antiproliferative Activity of the Compounds Disclosed Herein Against Ba/F3 (EGFR^del19/T790M/C797S) Triple-Mutant Cells and A431 (EGFR WT) Cells
(§5) • 3000 Ba/F3 cells carrying EGFR (del19/T790M/C797S) or 2000 A431 cells were seeded in a 384-well plate. After one day, serially diluted compounds were added (up to 500 nM for Ba/F3 cells and up to 10 μM for A431 cells). Three days after the addition of the compounds, Cell Titer Glow was added to evaluate cell growth and the percentage cell growth inhibition by the compounds and the IC50 values were calculated.

EGFR (WT) = EGFR (WT) (Homo sapiens, UniProt P00533); test: HTRF inhibitory activity assay against EGFR (WT) enzyme; assay type: biochemical
Chain of EGFR (WT) (P00533 25-1210): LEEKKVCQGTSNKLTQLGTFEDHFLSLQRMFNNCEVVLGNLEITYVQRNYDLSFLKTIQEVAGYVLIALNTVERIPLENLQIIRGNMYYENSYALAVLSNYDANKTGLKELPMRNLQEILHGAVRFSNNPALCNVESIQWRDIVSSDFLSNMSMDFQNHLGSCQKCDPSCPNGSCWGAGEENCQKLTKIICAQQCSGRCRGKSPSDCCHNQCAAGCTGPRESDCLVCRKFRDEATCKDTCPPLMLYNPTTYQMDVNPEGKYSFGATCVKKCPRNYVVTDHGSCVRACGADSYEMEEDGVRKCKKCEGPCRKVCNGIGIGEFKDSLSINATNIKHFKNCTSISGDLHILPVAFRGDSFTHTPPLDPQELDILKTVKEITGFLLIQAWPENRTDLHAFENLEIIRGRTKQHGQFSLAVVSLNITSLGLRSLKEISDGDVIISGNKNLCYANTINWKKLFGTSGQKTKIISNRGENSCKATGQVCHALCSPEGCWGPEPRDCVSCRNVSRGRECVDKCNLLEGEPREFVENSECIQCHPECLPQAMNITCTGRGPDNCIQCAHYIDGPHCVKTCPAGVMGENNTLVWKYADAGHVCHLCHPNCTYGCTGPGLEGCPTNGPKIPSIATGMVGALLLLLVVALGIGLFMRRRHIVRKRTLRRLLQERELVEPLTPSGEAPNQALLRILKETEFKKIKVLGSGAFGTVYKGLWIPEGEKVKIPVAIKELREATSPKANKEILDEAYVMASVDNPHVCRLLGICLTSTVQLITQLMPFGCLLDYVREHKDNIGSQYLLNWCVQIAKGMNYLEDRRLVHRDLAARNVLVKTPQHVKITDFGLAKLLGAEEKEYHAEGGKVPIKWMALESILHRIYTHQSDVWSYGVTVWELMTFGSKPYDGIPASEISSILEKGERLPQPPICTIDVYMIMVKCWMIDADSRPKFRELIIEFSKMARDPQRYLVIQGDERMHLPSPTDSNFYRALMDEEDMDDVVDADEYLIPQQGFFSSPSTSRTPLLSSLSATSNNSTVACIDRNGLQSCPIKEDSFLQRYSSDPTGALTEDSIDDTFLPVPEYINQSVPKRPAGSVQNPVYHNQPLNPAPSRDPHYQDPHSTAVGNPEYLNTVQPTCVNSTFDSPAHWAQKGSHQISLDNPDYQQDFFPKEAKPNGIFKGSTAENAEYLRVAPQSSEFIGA
Description: as §1, §2, §3

EGFR (del19/T790M/C797S) = test: HTRF inhibitory activity assay against EGFR (del19/T790M/C797S) enzyme; assay type: biochemical
Outline: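 Wild-type or mutant EGFR preincubated with serially diluted compound 10 min at 28 °C, then reacted 40 min at room temperature with biotinylated TK substrate and ATP. Phosphorylation detected by HTRF (Eu-cryptate anti-TK antibody, streptavidin-XL665, 60 min), 665/615 nm ratio; % inhibition and IC50 vs control.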

[1] = target: Ba/F3 (EGFR^del19/T790M/C797S) triple-mutant cells (Homo sapiens, UniProt P00533, T790M/C797S, cells depend on it, form not given); test: Antiproliferative activity against Ba/F3 (EGFR del19/T790M/C797S) triple-mutant cells, Cell Titer Glow; assay type: cell-based; conditions: three days after addition of compounds; read-out: Antiproliferative activity BaF3(EGFR^del19/T790M/C797S) IC50
Chain of Ba/F3 (EGFR^del19/T790M/C797S) triple-mutant cells (P00533 with tags, fused parts or gaps DEL746-750/T790M/C797S, form open): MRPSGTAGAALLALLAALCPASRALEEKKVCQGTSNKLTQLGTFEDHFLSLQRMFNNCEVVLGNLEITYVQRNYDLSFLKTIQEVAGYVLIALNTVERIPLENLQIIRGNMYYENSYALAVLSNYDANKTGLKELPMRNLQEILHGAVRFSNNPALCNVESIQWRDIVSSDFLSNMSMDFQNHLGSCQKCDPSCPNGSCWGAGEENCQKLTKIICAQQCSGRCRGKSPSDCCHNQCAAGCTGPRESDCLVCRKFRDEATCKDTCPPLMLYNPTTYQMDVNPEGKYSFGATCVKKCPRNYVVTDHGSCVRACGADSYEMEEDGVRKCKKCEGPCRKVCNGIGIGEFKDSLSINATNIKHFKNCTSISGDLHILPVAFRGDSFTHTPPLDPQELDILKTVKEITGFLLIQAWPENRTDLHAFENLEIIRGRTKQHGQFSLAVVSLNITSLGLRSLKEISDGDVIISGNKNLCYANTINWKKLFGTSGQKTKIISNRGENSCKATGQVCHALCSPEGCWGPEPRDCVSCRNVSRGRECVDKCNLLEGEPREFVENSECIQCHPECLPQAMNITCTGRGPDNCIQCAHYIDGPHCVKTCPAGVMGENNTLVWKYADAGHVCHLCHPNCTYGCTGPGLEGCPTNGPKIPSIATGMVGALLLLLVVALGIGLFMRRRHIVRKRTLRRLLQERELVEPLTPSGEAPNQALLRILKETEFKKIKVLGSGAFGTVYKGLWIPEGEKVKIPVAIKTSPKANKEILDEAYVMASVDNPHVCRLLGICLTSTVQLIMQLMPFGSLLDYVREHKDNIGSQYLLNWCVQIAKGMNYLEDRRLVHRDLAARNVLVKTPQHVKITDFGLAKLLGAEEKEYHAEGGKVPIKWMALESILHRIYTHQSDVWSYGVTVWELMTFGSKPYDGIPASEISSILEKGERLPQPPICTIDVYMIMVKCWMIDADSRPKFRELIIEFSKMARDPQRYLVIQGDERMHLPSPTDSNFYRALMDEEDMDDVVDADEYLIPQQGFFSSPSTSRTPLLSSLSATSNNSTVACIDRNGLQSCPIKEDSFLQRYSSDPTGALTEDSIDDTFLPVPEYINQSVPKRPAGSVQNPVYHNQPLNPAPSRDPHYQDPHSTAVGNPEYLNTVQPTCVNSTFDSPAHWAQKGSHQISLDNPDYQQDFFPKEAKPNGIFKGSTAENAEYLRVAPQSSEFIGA
Description: as §4, §5

Chain of EGFR (L858R/T790M/C797S) (P00533 25-1210 T790M/C797S/L858R): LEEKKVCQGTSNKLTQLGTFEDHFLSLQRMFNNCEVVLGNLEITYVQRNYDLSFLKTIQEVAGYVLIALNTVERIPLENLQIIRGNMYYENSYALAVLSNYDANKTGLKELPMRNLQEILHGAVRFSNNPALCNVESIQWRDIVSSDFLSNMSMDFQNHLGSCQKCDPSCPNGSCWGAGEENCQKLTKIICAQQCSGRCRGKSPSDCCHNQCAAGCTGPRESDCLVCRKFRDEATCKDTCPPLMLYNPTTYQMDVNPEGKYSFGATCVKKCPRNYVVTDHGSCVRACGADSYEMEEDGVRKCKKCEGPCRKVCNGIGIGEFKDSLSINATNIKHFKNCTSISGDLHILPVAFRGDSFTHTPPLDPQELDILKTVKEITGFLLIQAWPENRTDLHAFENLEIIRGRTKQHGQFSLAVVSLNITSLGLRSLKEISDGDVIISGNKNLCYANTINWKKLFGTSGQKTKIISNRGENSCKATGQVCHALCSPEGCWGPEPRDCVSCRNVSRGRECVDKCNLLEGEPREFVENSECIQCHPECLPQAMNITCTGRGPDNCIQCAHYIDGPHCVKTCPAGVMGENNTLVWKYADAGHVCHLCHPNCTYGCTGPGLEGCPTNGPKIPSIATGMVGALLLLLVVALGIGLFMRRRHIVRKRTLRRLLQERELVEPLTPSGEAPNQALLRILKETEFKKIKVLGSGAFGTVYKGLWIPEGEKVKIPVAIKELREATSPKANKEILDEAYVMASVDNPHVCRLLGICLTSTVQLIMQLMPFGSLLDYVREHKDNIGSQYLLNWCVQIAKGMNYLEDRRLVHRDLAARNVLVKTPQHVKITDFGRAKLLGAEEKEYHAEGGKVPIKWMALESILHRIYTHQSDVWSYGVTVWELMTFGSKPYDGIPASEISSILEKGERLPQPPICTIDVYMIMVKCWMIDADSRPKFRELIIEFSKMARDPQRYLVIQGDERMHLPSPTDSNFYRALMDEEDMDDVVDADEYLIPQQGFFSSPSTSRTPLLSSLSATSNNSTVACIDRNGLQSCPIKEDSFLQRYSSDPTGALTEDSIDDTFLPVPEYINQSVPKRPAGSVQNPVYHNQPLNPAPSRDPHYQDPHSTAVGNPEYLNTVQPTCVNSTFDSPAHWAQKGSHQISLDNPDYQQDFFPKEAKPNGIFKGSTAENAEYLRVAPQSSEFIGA

With `CN1CCN(C2CCN(c3ccc(Nc4nc(NC5CCOCC5)c(-c5ccncc5)nc4C(N)=O)cc3)CC2)CC1` [compound 39, 3-((4-(4-(4-methylpiperazin-1-yl)piperidin-1-yl)phenyl)amino)-6-(pyridin-4-yl)-5-((tetrahydro-2H-pyran-4-yl)amino)pyrazine-2-carboxamide] the inhibition at 0.0003 µM (EGFR (L858R/T790M/C797S)) was over 50%, the IC50 (A431 (EGFR WT) cells) was 340 nM and the IC50 (EGFR (WT)) was over 300 nM. For the same compound, the “EGFR (del19/T790M/C797S) inhibition (%) (0.3 nM compound)” value (“EGFR (del19/T790M/C797S) inhibition (%)” below) (EGFR (del19/T790M/C797S)) was “+++ (+++ indicates an inhibition greater than 50%.)” and the GI50 [1] was 29 nM.
`CN1CCN(C2CCN(c3ccc(Nc4nc(NC5CCOCC5)c(-c5ccccc5C#N)nc4C(N)=O)cc3)CC2)CC1` [compound 52] was tested, and the IC50 (EGFR (WT)) was over 300 nM and the “EGFR (del19/T790M/C797S) inhibition (%)” value (EGFR (del19/T790M/C797S)) was “+++ (+++ indicates an inhibition greater than 50%.)”.
Compound `CN1CCN(C2CCN(c3ccc(Nc4nc(NC5CCOCC5)c(-c5cc[nH]n5)nc4C(N)=O)cc3)CC2)CC1` [compound 55, 3-((4-(4-(4-methylpiperazin-1-yl)piperidin-1-yl)phenyl)amino)-6-(1H-pyrazol-3-yl)-5-((tetrahydro-2H-pyran-4-yl)amino)pyrazine-2-carboxamide] has an inhibition at 0.0003 µM (EGFR (L858R/T790M/C797S)) of at most 20%, an IC50 (A431 (EGFR WT) cells) of 70 nM and an IC50 (EGFR (WT)) of over 300 nM. The “EGFR (del19/T790M/C797S) inhibition (%)” value (EGFR (del19/T790M/C797S)) was “+++ (+++ indicates an inhibition greater than 50%.)” and the GI50 [1] was 16 nM.
In the case of `CN1CCN(C2CCN(c3ccc(Nc4nc(NC5CCOCC5)c(-c5cn[nH]c5)nc4C(N)=O)cc3)CC2)CC1` [compound 57], the inhibition at 0.0003 µM (EGFR (L858R/T790M/C797S)) is reported as 20 to 50%, the IC50 (A431 (EGFR WT) cells) is reported as 320 nM and the IC50 (EGFR (WT)) is reported as over 300 nM. For the same compound, the “EGFR (del19/T790M/C797S) inhibition (%)” value (EGFR (del19/T790M/C797S)) was “++ (++ indicates an inhibition from 20% to 50%)” and the GI50 [1] was 79 nM.
For `CN(C)C1CCN(c2ccc(Nc3nc(NC4CCOCC4)c(-c4ccccc4)nc3C(N)=O)cc2)CC1` [compound 59], the IC50 (A431 (EGFR WT) cells) was 1400 nM, the IC50 (EGFR (WT)) was over 300 nM and the “EGFR (del19/T790M/C797S) inhibition (%)” value (EGFR (del19/T790M/C797S)) was “+ (+ indicates an inhibition less than or equal to 20%)”. The GI50 [1] was 72 nM.
With `COc1ccncc1-c1nc(C(N)=O)c(Nc2ccc(N3CCC(N4CCN(C)CC4)CC3)cc2)nc1NC1CCOCC1` [compound 83] the inhibition at 0.0003 µM (EGFR (L858R/T790M/C797S)) was 20 to 50%, the IC50 (A431 (EGFR WT) cells) was 750 nM and the “EGFR (del19/T790M/C797S) inhibition (%)” value (EGFR (del19/T790M/C797S)) was “++ (++ indicates an inhibition from 20% to 50%)”. For the same compound, the GI50 [1] was 233 nM.
`Cc1cc(Nc2nc(NC3CCOCC3)c(-c3ccncc3)nc2C(N)=O)ccc1N1CCC(N2CCN(C)CC2)CC1` [compound 114] was tested, and the inhibition at 0.0003 µM (EGFR (L858R/T790M/C797S)) was over 50%, the IC50 (A431 (EGFR WT) cells) was 970 nM and the “EGFR (del19/T790M/C797S) inhibition (%)” value (EGFR (del19/T790M/C797S)) was “++ (++ indicates an inhibition from 20% to 50%)”. For the same compound, the GI50 [1] was 27 nM.
In the case of `CN1CCC(c2ccc(Nc3nc(NC4CCOCC4)c(-c4ccncc4)nc3C(N)=O)cc2)CC1` [compound 121], the inhibition at 0.0003 µM (EGFR (L858R/T790M/C797S)) is reported as over 50%, the IC50 (A431 (EGFR WT) cells) is reported as 590 nM and the “EGFR (del19/T790M/C797S) inhibition (%)” value (EGFR (del19/T790M/C797S)) is reported as “+++ (+++ indicates an inhibition greater than 50%.)”. For the same compound, the GI50 [1] was 70 nM.
With `CO[C@H]1C[C@H](Nc2nc(Nc3ccc(N4CCC(N5CCN(C)CC5)CC4)cc3)c(C(N)=O)nc2-c2ccccc2)C1` [compound 125] the inhibition at 0.0003 µM (EGFR (L858R/T790M/C797S)) was 20 to 50%, the IC50 (A431 (EGFR WT) cells) was 650 nM and the “EGFR (del19/T790M/C797S) inhibition (%)” value (EGFR (del19/T790M/C797S)) was “++ (++ indicates an inhibition from 20% to 50%)”. The GI50 [1] was 99 nM.
In the case of `CN1CCN(C2CCN(c3ccc(Nc4nc(NC5CS(=O)(=O)C5)c(-c5ccccc5)nc4C(N)=O)cc3)CC2)CC1` [compound 126], the inhibition at 0.0003 µM (EGFR (L858R/T790M/C797S)) is reported as at most 20%, the IC50 (A431 (EGFR WT) cells) is reported as 2600 nM and the “EGFR (del19/T790M/C797S) inhibition (%)” value (EGFR (del19/T790M/C797S)) is reported as “+ (+ indicates an inhibition less than or equal to 20%)”. For the same compound, the GI50 [1] was 248 nM.
In the case of `CCc1cc(Nc2nc(NC3CC4(COC4)C3)c(-c3cc[nH]n3)nc2C(N)=O)ccc1N1CCC(N2CCN(C)CC2)CC1` [compound 503], the inhibition at 0.0003 µM (EGFR (L858R/T790M/C797S)) is reported as at most 20%, the IC50 (A431 (EGFR WT) cells) is reported as 660 nM and the IC50 (EGFR (WT)) is reported as 10.2 nM. The “EGFR (del19/T790M/C797S) inhibition (%)” value (EGFR (del19/T790M/C797S)) was “+++ (+++ indicates an inhibition greater than 50%.)” and the GI50 [1] was 61 nM.
`CC(C)Nc1nc(Nc2ccc(N3CCC(N4CCN(C)CC4)CC3)cc2)c(C(N)=O)nc1-c1cccc2[nH]ccc12` [compound 521] was tested, and the inhibition at 0.0003 µM (EGFR (L858R/T790M/C797S)) was over 50%, the IC50 (A431 (EGFR WT) cells) was 50 nM and the IC50 (EGFR (WT)) was 0.27 nM. The “EGFR (del19/T790M/C797S) inhibition (%)” value (EGFR (del19/T790M/C797S)) was “+++ (+++ indicates an inhibition greater than 50%.)” and the GI50 [1] was 4 nM.
With `CN1CCN(C2CCN(c3ccc(Nc4nc(NC5CC6(COC6)C5)c(-c5cccc6[nH]ccc56)nc4C(N)=O)cc3F)CC2)CC1` [compound 536] the inhibition at 0.0003 µM (EGFR (L858R/T790M/C797S)) was over 50% and the “EGFR (del19/T790M/C797S) inhibition (%)” value (EGFR (del19/T790M/C797S)) was “+++ (+++ indicates an inhibition greater than 50%.)”.
For `CN1CCN(C2CCN(c3ccc(Nc4nc(NC5COC5)c(-c5cccc6[nH]ccc56)nc4C(N)=O)cc3)CC2)CC1` [compound 594], the inhibition at 0.0003 µM (EGFR (L858R/T790M/C797S)) was over 50%, the IC50 (A431 (EGFR WT) cells) was 70 nM and the “EGFR (del19/T790M/C797S) inhibition (%)” value (EGFR (del19/T790M/C797S)) was “+++ (+++ indicates an inhibition greater than 50%.)”. It also gave a GI50 [1] of 13 nM.
